Experimental data reported in US7595340B2, “Serotonin and norepinephrine reuptake inhibitor and uses thereof” (Wyeth, priority 2005, dated 2009).
In brackets after ≈: the same amount, converted by molar mass.

Key:
[1] = target: human serotonin transporter (Homo sapiens, UniProt P31645); assay: human serotonin transporter assay (in-house); assay type: binding; conditions: initial experiments, in-house assays
Source text: In initial experiments using in-house assays, 4-[2-dimethylamino-1-(4-hydroxy-phenyl)-ethyl]-tetrahydro-pyran-4-ol has been found active in a human serotonin transporter assay.

[2] = Solution stability in aqueous solutions; assay type: physicochemical; conditions: room temperature, all aqueous solutions (pH 1.25-8.8)
Hygroscopicity profile = assay type: physicochemical
Source text: FIG. 2 provides a chart of the hygroscopicity profile of 4-[2-dimethylamino-1-(4-phenyl)-ethyl-tetrahydro-pyran-4-ol.

pH-solubility profile = assay type: physicochemical; conditions: aqueous solution, thermodynamic from solid
Source text: FIG. 4 provides a chart of the pH - solubility profile of 4-[2-dimethylamino-1-(4-phenyl)-ethyl-tetrahydro-pyran-4-ol.

human serotonin transporter, sequence (P31645 whole entry): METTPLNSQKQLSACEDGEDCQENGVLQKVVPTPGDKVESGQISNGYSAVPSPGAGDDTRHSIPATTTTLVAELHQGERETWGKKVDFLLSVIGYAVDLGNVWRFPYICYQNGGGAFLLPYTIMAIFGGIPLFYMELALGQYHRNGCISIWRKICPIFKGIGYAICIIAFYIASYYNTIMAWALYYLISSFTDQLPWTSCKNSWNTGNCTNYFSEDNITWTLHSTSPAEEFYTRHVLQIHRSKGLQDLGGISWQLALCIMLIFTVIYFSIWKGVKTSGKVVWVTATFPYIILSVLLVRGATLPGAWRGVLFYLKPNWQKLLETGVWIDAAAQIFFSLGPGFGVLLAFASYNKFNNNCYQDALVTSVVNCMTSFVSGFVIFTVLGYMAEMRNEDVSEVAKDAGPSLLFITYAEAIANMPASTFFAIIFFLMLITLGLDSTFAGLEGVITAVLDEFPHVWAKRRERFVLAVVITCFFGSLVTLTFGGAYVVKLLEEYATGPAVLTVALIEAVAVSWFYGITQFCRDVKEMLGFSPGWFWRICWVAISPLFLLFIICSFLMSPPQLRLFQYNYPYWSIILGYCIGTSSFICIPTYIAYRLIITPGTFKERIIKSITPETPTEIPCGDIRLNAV

activity in human serotonin transporter assay [1]: active | Solution Stability (time stable) [2]: at least 24 hours | Hygroscopicity (Hygroscopicity profile): Non-hygroscopic | Hygroscopicity, weight gain (Hygroscopicity profile; @ 70% RH): 2% | Hygroscopicity, weight gain (Hygroscopicity profile; @ 90% RH, weight gain was lost when returned to 10% RH or 0% RH): 6% | solubility (pH-solubility profile; pH 4.4, aqueous buffer, Final pH 4.40): 3910 µg/mL (≈ 14.7 mM) | solubility (pH-solubility profile; pH 7.1, aqueous buffer, Final pH 7.10): 3470 µg/mL (≈ 13.1 mM) | solubility (pH-solubility profile; pH 8.8, aqueous buffer, Final pH 8.80): 2960 µg/mL (≈ 11.2 mM) | solubility (pH-solubility profile; simulated gastric fluid, Final pH 1.25): 13600 µg/mL (≈ 51.1 mM)
Structure (SMILES): CN(C)CC(c1ccc(O)cc1)C1(O)CCOCC1 (stereo not drawn) [4-[2-Dimethylamino-1-(4-Hydroxy-Phenyl)-ethyl]-Tetrahydro-Pyran-4-ol]
